Test results reported in ChEMBL document CHEMBL1141094, “Bisphosphonate inhibition of the exopolyphosphatase activity of the Trypanosoma brucei soluble vacuolar pyrophosphatase” (J Med Chem, 2005).
pEC50: −log10 of the molar value.

What was measured:
[1] = target: T1, Vacuolar-type proton translocating pyrophosphatase 1 (Trypanosoma brucei) (UniProt Q8MTZ4); assay: Ratio of ED50 against KB cell line to that of IC50 of TbVSP1; assay type: functional, cell-based
T1 sequence (whole entry): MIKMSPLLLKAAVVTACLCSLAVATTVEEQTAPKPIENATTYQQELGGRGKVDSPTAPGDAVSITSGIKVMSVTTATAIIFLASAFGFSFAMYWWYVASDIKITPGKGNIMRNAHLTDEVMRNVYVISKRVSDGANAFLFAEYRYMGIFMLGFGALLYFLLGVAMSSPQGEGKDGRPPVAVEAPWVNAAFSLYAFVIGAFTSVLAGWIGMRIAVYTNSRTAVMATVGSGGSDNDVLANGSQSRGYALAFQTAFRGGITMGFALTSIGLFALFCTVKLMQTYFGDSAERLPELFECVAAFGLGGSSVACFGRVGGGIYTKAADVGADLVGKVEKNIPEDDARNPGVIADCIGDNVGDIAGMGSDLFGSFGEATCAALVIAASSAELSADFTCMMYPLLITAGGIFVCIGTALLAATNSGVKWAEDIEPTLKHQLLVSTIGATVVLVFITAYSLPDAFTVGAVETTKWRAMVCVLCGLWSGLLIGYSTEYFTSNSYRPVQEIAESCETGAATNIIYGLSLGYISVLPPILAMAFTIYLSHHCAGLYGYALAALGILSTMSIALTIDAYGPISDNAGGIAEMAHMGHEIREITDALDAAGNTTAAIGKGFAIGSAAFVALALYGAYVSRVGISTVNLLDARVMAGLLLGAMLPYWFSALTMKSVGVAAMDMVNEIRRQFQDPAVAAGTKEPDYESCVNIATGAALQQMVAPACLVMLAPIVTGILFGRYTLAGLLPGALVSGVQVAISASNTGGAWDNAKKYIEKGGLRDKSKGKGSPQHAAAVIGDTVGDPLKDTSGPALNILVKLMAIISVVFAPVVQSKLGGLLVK

KB = assay: Dose to inhibit the growth of human KB carcinoma cell line; assay type: functional; settings: read-out: ED50 (the source's name)

Row | SMILES | TI [1] | pEC50 (KB)
1 | CCCCCCCCCC(O)(P(=O)(O)O)P(=O)(O)O | 2.5 | 3.05
2 | O=P(O)(O)C(Nc1cccc(-c2ccccc2)c1)P(=O)(O)O | 174 | 3.13
3 | O=P(O)(O)C(O)(Cc1cccc(Cl)c1)P(=O)(O)O | 38 | 3.55
4 | CCc1ccc(NC(P(=O)(O)O)P(=O)(O)O)cc1 | 21 | 3.59
5 | CCc1cccc(NC(P(=O)(O)O)P(=O)(O)O)n1 | 15 | 3.07
6 | Nc1ccc(CC(O)(P(=O)(O)O)P(=O)(O)O)cc1 | 4 | 3.66
7 | O=[N+]([O-])c1cccc(CC(O)(P(=O)(O)O)P(=O)(O)O)c1 | 44 | 3.14
8 | CC(C)c1cccc(C(C)C)c1NC(P(=O)(O)O)P(=O)(O)O | 28 | 3.15
9 | O=P(O)(O)C(CNc1ccccn1)P(=O)(O)O | 0.4 | 3.84
10 | CCCCCCCCCNC(P(=O)(O)O)P(=O)(O)O [(NONYLAMINO)METHYLENEDIPHOSPHONIC ACID] | 16 | 3.04
11 | CCCCCCCCC(O)(P(=O)(O)O)P(=O)(O)O | 1.3 | 4.19
12 | Cc1cccc(CC(O)(P(=O)(O)O)P(=O)(O)O)c1 | 0.04 | 6.05
13 | O=P(O)(O)C(Nc1ccc(-c2ccccc2)cc1)P(=O)(O)O | 1.4 | 3.31
14 | O=P(O)(O)C(O)(Cc1cccc(Br)c1)P(=O)(O)O | 25 | 3.64
15 | CCCCOc1ccc(NC(P(=O)(O)O)P(=O)(O)O)cc1 | 5.3 | 3.68
16 | CCn1c2ccccc2c2ccc(NC(P(=O)(O)O)P(=O)(O)O)cc21 | 19 | 3.15
17 | O=P(O)(O)C(Nc1cccc(Cc2ccccc2)c1)P(=O)(O)O | 14 | 3.19

Row | SMILES | TI [1] | pEC50 (KB)
18 | CCCCC(O)(P(=O)(O)O)P(=O)(O)O | 82 | 2.98
19 | O=P(O)(O)C(O)(Cc1cccnc1)P(=O)(O)O [RISEDRONIC ACID] | 0.4 | 3.59
20 | CCCNC(P(=O)(O)O)P(=O)(O)O [(PROPYLAMINO)METHYLENEDIPHOSPHONIC ACID] | 10 | 3.30
21 | O=P(O)(O)C(NC1CCCCCC1)P(=O)(O)O [INCADRONIC ACID] | 3.7 | 3.78
22 | O=P(O)(O)C(O)(Cc1cccc(C(F)(F)F)c1)P(=O)(O)O | 6.3 | 3.96
23 | O=P(O)(O)C(Nc1ccc2c(c1)CCC2)P(=O)(O)O | 101 | 3.01
24 | CCc1cccc(NC(P(=O)(O)O)P(=O)(O)O)c1 | 423 | 2.99
25 | CCCCCCCCCCCCCCCC(O)(P(=O)(O)O)P(=O)(O)O | 2.1 | 3.14
26 | CN(CCOc1ccccc1)CCC(O)(P(=O)(O)O)P(=O)(O)O | 1 | 3.51
27 | CC(C)c1cccc(NC(P(=O)(O)O)P(=O)(O)O)c1 | 79 | 3.11
28 | CCCCNC(P(=O)(O)O)P(=O)(O)O [(BUTYLAMINO)METHYLENEDIPHOSPHONIC ACID] | 4.9 | 3.67
29 | CC(C)(C)c1cc(NC(P(=O)(O)O)P(=O)(O)O)cc(C(C)(C)C)c1 | 39 | 3.20
30 | O=P(O)(O)C(O)(Cc1cccc2ccccc12)P(=O)(O)O | 75 | 3.07
31 | O=P(O)(O)C(O)(Cn1ccnc1)P(=O)(O)O [ZOLEDRONIC ACID] | 0.3 | 4.20
32 | O=P(O)(O)C(Nc1ccc(Cl)cc1Cl)P(=O)(O)O [2,4-DICHLOROPHENYLAMINOMETHYLENEBISPHOSPHONIC ACID] | 169 | 3.14
33 | O=P(O)(O)C(O)(Cc1cccc(F)c1)P(=O)(O)O | 20 | 3.65
34 | CCCCCC(O)(P(=O)(O)O)P(=O)(O)O | 10 | 3.97
